Earlier results in patent US20140256762A1, “ARTEMISININ-BASED COMBINATION THERAPY FOR TREATING VIRAL MEDIATED DISEASE” (priority 2012, published 2014).

Legend:
[1] = background statement
[2] = background statement; remark: listed apart in the source

Solubility [1]	SMILES	Genotoxic activity [2]	Toxicity ([2]; generally considered)
lipid-soluble	CO[C@H]1O[C@@H]2O[C@@]3(C)CC[C@H]4[C@H](C)CC[C@@H]([C@H]1C)[C@@]24OO3 [artemether, (+)-(3-alpha,5a-beta,6-beta,8a-beta, 9-alpha,12-beta,12aR)-decahydro-10-methoxy-3,6,9-trimethyl-3,12-epoxy-12H-pyrano(4,3-j)-1,2-benzodioxepin]	–	–
water-soluble	C[C@H]1[C@H](OC(=O)CCC(=O)O)O[C@@H]2O[C@@]3(C)CC[C@H]4[C@H](C)CC[C@@H]1[C@@]24OO3 [artesunate, 3R,5aS,6R,8aS,9R,10S,12R,12aR)-Decahydro-3,6,9-trimethyl-3,12-epoxy-12H-pyrano(4,3-j)-1,2-benzodioxepin-10-ol hydrogen succinate]	–	–
–	COc1ccc2cc3[n+](cc2c1OC)CCc1cc2c(cc1-3)OCO2 [Berberine, (5,6-Dihydro-9,10-dimethoxybenzo[g]-1,3-benzodioxolo[5,6-a]quinolizinium)]	no genotoxic activity	non-toxic

SMILES	Solubility [1]	Genotoxic activity [2]	Toxicity ([2]; generally considered)
C[C@@H]1CC[C@H]2[C@@H](C)C(=O)O[C@@H]3O[C@@]4(C)CC[C@@H]1[C@]32OO4 [artemisinin]	sparingly soluble in either water or oils	–	–
